Usually EC50 stands for the midpoint of the concentration-response curve.

EC50 and Emax data for 20 molecules are collected here from US9751869B2, “LXR modulators” (BRISTOL-MYERS SQUIBB COMPANY, priority 2013, dated 2017).

This assay deals with T1, LXRβ (Homo sapiens, UniProt P55055).
T1 construct: Co-transfection expression plasmids, comprising full-length LXRα (pCMX-h LXRα or LXRβ (pCMX-hLXRβ)); expressed in transfected cells; host or cells: CV-1 African green monkey kidney cells, transient transfection with pCMX-hLXRβ
T1 sequence (P55055 1-460): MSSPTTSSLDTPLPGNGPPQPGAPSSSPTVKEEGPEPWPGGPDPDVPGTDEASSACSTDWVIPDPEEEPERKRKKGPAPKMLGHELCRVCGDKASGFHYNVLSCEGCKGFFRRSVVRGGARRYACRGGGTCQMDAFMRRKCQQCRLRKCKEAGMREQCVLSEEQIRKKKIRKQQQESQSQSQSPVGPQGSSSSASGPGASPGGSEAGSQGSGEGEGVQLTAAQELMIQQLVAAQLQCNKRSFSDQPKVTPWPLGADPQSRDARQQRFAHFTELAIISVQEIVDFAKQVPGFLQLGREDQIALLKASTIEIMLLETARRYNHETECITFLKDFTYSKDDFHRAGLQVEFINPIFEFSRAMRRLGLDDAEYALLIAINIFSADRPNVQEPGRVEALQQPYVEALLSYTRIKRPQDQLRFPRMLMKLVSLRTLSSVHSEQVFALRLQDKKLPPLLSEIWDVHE
T1 sequence (P19793 1-462 partner): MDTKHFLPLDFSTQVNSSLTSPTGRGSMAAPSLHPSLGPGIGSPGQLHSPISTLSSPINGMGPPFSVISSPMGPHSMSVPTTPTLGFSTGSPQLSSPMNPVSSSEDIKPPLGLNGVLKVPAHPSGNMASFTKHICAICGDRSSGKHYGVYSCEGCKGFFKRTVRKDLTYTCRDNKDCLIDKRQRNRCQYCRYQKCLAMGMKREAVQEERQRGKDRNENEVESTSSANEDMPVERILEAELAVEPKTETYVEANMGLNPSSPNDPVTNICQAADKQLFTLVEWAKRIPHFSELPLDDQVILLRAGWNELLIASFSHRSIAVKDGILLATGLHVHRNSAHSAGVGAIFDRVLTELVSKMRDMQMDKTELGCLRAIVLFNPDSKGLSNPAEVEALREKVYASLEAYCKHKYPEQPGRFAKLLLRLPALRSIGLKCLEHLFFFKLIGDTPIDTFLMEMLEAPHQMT
The experiment in a line: LXR/LXRE co-transfection assay (luciferase reporter) in CV-1 cells, LXRβ. Format: cell-based. Conditions: for EC50: CV-1 cells transfected with pCMX-hLXRβ and LXREx1-Tk-Luciferase, 20 hours incubation, read-out: LXRbeta agonism EC50; for Emax: CV-1 cells, relative to maximum response of high control N-(3-((4-fluorophenyl)-(naphthalene-2-sulfonyl)amino)propyl)-2,2-dimethylpropionamide, read-out: LXRbeta % EFFICACY
In short, it runs like this: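 CV-1 cells transiently co-transfected with full-length human LXRβ, LXRE-Tk-luciferase reporter and β-galactosidase control, then exposed to compound (≤0.5% DMSO) for 20 h at 37 °C before luminescence read. EC50 from 10-point, half-log dose curves; efficacy relative to the sulfonamide high control, means of 2–3 experiments.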
(In general: In a reporter assay the amount or activity of a reporter protein is the signal.)

Consider `Cc1nc(-c2ccc(OC(F)(F)F)cc2)c(-c2cc(-c3cccc(S(C)(=O)=O)c3)ccc2-n2ccc(C(C)(C)C#N)n2)o1` [Example 373], for which the EC50 is 92 nM and the Emax is 22%.

Regarding `Cc1nc(-c2ccc(OC(F)(F)F)cc2)c(-c2cc(-c3cccc(S(C)(=O)=O)c3)ccc2-n2cc(C)c(C(F)(F)F)n2)o1` [Example 440], the EC50 came to 51 nM and the Emax was 62%.

Consider `COc1ncc(-c2oc(C)nc2-c2cc(-c3cccc(S(C)(=O)=O)c3)ccc2-n2ccc(C(F)(F)F)n2)cc1F` [Example 407, 5-(5-fluoro-6-methoxypyridin-3-yl)-2-methyl-4-(3′-(methylsulfonyl)-4-(3-(trifluoromethyl)-1H-pyrazol-1-yl)biphenyl-3-yl)oxazole], for which the EC50 turned out to be 67 nM and the Emax was found to be 91%.

For the molecule `Cc1nc(-c2ccc(OC(F)F)cc2Cl)c(-c2cc(-c3cccc(S(C)(=O)=O)c3)ccc2-n2cc(Cl)c(C(F)(F)F)n2)o1` [Example 431], the EC50 was 37 nM and the Emax was 69%.

As to `Cc1nc(-c2cc(-c3ccc(CO)c(S(C)(=O)=O)c3)ccc2-n2nc(C(F)(F)F)cc2C)c(-c2ccc3c(c2)OC(F)(F)O3)o1` [Example 390, (3′-(5-(2,2-difluorobenzo[d][1,3]dioxol-5-yl)-2-methyloxazol-4-yl)-4′-(5-methyl-3-(trifluoromethyl)-1H-pyrazol-1-yl)-3-(methylsulfonyl)biphenyl-4-yl) methanol], the EC50 was 10 nM and the Emax amounted to 72%.

For `Cc1nc(-c2ccc(OC(F)(F)F)cc2)c(-c2cc(-c3cccc(S(C)(=O)=O)c3)ccc2-c2cc(C(F)(F)C(C)(C)O)nn2C)o1` [Example 48, 1,1-difluoro-2-methyl-1-(1-methyl-5-(3-(2-methyl-4-(4-(trifluoromethoxy)phenyl)oxazol-5-yl)-3′-(methylsulfonyl)biphenyl-4-yl)-1H-pyrazol-3-yl)propan-2-ol], the EC50 is 46 nM and the Emax came out at 27%.

As to `Cc1nc(-c2ccc(OC(F)F)c(F)c2)c(-c2cc(-c3cc(F)c(CO)c(S(C)(=O)=O)c3)ccc2-n2cc(Cl)c(C(F)(F)F)n2)o1` [Example 434, (4′-(4-chloro-3-(trifluoromethyl)-1H-pyrazol-1-yl)-3′-(4-(4-(difluoromethoxy)-3-fluorophenyl)-2-methyloxazol-5-yl)-3-fluoro-5-(methylsulfonyl)-[1,1′-biphenyl]-4-yl)methanol], the EC50 was found to be 13 nM and the Emax came out at 78%.

With `Cc1nc(-c2ccc(OC(F)(F)F)cc2)c(-c2cc(-c3cccc(S(C)(=O)=O)c3)ccc2-c2cc(C(=O)NCC(C)(C)O)nn2C)o1` [Example 124], the EC50 turned out to be 769 nM and the Emax turned out to be 24%.

As for `Cn1nc(C(F)(F)F)cc1-c1ccc(-c2cccc(S(C)(=O)=O)c2)cc1-n1nncc1-c1ccc(OC(F)(F)F)cc1` [Example 14, 1-{3′-(methylsulfonyl)-4-[1-methyl-3-(trifluoromethyl)-1H-pyrazol-5-yl]biphenyl-3-yl}-5-{4-[(trifluoromethyl)oxy]phenyl}-1H-1,2,3-triazole], the EC50 worked out at 32 nM and the Emax was found to be 99%.

With `Cc1nc(-c2ccc(OC(F)(F)F)cc2)c(-c2cc(-c3cccc(S(C)(=O)=O)c3)ccc2-n2ccc(C(C)O)n2)o1` (single isomer, unassigned) [Example 367, 1-(1-(3-(2-methyl-4-(4-(trifluoromethoxy)phenyl)oxazol-5-yl)-3′-(methylsulfonyl)-[1,1′-biphenyl]-4-yl)-1H-pyrazol-3-yl)ethanol], the EC50 stood at 264 nM and the Emax turned out to be 55%.

As to `Cc1nc(-c2ccc3c(c2)OC(F)(F)O3)c(-c2cc(-c3cc(F)c(CO)c(S(C)(=O)=O)c3)ccc2-c2cc(C(F)(F)c3nnc[nH]3)nn2C)o1` [Example 52, (4′-(3-(difluoro(4H-1,2,4-triazol-3-yl)methyl)-1-methyl-1H-pyrazol-5-yl)-3′-(4-(2,2-difluorobenzo[d][1,3]dioxol-5-yl)-2-methyloxazol-5-yl)-3-fluoro-5-(methylsulfonyl)biphenyl-4-yl)methanol], the EC50 is 2520 nM and the Emax came out at 30%.

As to `CC(O)C(F)(F)c1cc(-c2ccc(-c3cccc(S(C)(=O)=O)c3)cc2-n2nncc2-c2ccc(OC(F)(F)F)cc2)n(C)n1` (stereo not shown) [Example 1, 1,1-difluoro-1-(1-methyl-5-(3′-(methylsulfonyl)-3-(5-(4-(trifluoromethoxy)phenyl)-1H-1,2,3-triazol-1-yl)biphenyl-4-yl)-1H-pyrazol-3-yl)propan-2-ol], the EC50 turned out to be 783 nM and the Emax came to 68%.

As to `Cc1nc(-c2cc(-c3cc(F)c(CO)c(S(C)(=O)=O)c3)ccc2-c2cc(C(C)(C)C(C)(C)O)nn2C)c(-c2ccc3c(c2)OC(F)(F)O3)o1` [Example 64, 3-(5-(3-(5-(2,2-difluorobenzo[d][1,3]dioxol-5-yl)-2-methyloxazol-4-yl)-3′-fluoro-4′-(hydroxymethyl)-5′-(methylsulfonyl)biphenyl-4-yl)-1-methyl-1H-pyrazol-3-yl)-2,3-dimethylbutan-2-ol], the EC50 is 24 nM and the Emax came out at 42%.

Turning to `Cc1nc(-c2ccc(OC(F)(F)F)cc2)c(-c2cc(-c3ccc(CO)c(S(C)(=O)=O)c3)ccc2-n2nc(C(F)(F)F)cc2C)o1` [Example 333, (4′-(5-methyl-3-(trifluoromethyl)-1H-pyrazol-1-yl)-3′-(2-methyl-4-(4-(trifluoromethoxy)phenyl)oxazol-5-yl)-3-(methylsulfonyl)biphenyl-4-yl)methanol], the EC50 is 35 nM and the Emax was determined as 69%.

Regarding `Cn1nc(C(F)(F)CO)cc1-c1ccc(-c2cc(F)c(CO)c(S(C)(=O)=O)c2)cc1-n1nncc1-c1ccc2c(c1)OC(F)(F)O2` [Example 36, 2-(5-(3-(5-(2,2-difluorobenzo[d][1,3]dioxol-5-yl)-1H-1,2,3-triazol-1-yl)-3′-fluoro-4′-(hydroxymethyl)-5′-(methylsulfonyl)-[1,1′-biphenyl]-4-yl)-1-methyl-1H-pyrazol-3-yl)-2,2-difluoroethanol], the EC50 was determined as 2730 nM and the Emax turned out to be 91%.

For `Cc1nc(-c2ccc(OC(F)(F)F)cc2)c(-c2cc(-c3cccc(S(C)(=O)=O)c3)ccc2-n2nc(C(F)(F)F)cc2C)o1` [Example 331, 2-methyl-5-(4-(5-methyl-3-(trifluoromethyl)-1H-pyrazol-1-yl)-3′-(methylsulfonyl)biphenyl-3-yl)-4-(4-(trifluoromethoxy)phenyl)oxazole], the concentration for a half-maximal effect (EC50) is 61 nM and the Emax came out at 82%.

As for `Cc1nc(-c2cc(-c3cc(F)c(CO)c(S(C)(=O)=O)c3)ccc2-n2nc(C(F)(F)F)cc2Cl)c(-c2ccc(OC(F)(F)F)cc2)o1` [Example 405, (4′-(5-chloro-3-(trifluoromethyl)-1H-pyrazol-1-yl)-3-fluoro-3′-(2-methyl-5-(4-(trifluoromethoxy)phenyl)oxazol-4-yl)-5-(methylsulfonyl)biphenyl-4-yl)methanol], the EC50 was 100 nM and the Emax was determined as 63%.

As to `Cc1nc(-c2ccc(OC(F)(F)F)cc2)c(-c2cc(-c3cc(F)c(CO)c(S(C)(=O)=O)c3)ccc2-n2nc(C(F)(F)F)cc2Cl)o1` [Example 348, (4′-(5-chloro-3-(trifluoromethyl)-1H-pyrazol-1-yl)-3-fluoro-3′-(2-methyl-4-(4-(trifluoromethoxy)phenyl)oxazol-5-yl)-5-(methylsulfonyl)biphenyl-4-yl)methanol], the EC50 worked out at 59 nM and the Emax was found to be 57%.

As for `Cc1nc(-c2ccc(OC(F)(F)F)cc2)c(-c2cc(-c3cccc(S(C)(=O)=O)c3)ccc2-n2ccc(C(C)(F)F)n2)o1` [Example 442, 5-(4-(3-(1,1-difluoroethyl)-1H-pyrazol-1-yl)-3′-(methylsulfonyl)-[1,1′-biphenyl]-3-yl)-2-methyl-4-(4-(trifluoromethoxy)phenyl)oxazole], the EC50 was 52 nM and the Emax is 60%.

In the case of `Cc1nc(-c2ccc3c(c2)OC(F)(F)O3)c(-c2cc(-c3cccc(S(C)(=O)=O)c3)ccc2-c2cc(CO)nn2C)o1` [Example 98, (5-(3-(4-(2,2-difluorobenzo[d][1,3]dioxol-5-yl)-2-methyloxazol-5-yl)-3′-(methylsulfonyl)-[1,1′-biphenyl]-4-yl)-1-methyl-1H-pyrazol-3-yl)methanol], the EC50 was found to be 258 nM and the Emax is 57%.
